Counter-ions that a name gives are not always drawn.
What was measured:
phosphorylase = assay: Brain phosphorylase after triethyl tin sulfate cerebral edema; format: in vivo; details: rats
Description: (§1) Cerebral edema was induced in rats by a triethyl tin sulfate (5.0 mg/kg, i.p.) made on the whole brain. Edema was measured by the increase in water content, lactate, phosphorylase activity and the decrease in glycogen, Na^+, K^+ - ATPase activity of the whole brain.
(§2) 1-(3'-Pyridyl)-3-(2'-hydroxyethyl)thiourea HCl was given 1 hour before and 24, 48 hours after the lesion treatment and the animals were killed by decapitation 72 hours after the lesion treatment.

[1] = Haemodynamic action in anesthetized dogs; format: in vivo
Description: To study of 1-(3'-pyridyl)-3-(2'-hydroxyethyl)thiourea HCl on the haemodynamic action, five dogs of either sex were used under sodium pentobarbital anesthesia (30 mg/kg i.v.), the common carotid artery blood flow and the femoral artery blood flow were measured by the electromagnetic flow meter and the systolic blood pressure in the femoral artery was recorded with the pressure transducer.

[2] = Hypoxia test (mouse), KCN, survival time; format: in vivo, male mice (dd-strain); details: KCN 10 mg/kg i.p.
[3] = Hypoxia test (mouse), reduced pressure, survival time; format: in vivo, male mice (dd-strain); details: reduced pressure 145 mmHg
Description: (§3) Male mice (dd-strain) and rats (wister-strain) were taken to a closed room which was filled with a gas mixture consisting of 1.5 % oxygen and 98.5 % nitrogen, or was conditioned in reduced atmospheric pressure (145 mmHg). In the other hand, mice and rats were given sodium cyanide (10 mg/kg, i.p.). These animals died after a few minutes in such conditions. 1-(3'-Pyridyl)-3-(2'-hydroxyethyl)thiourea HCl was given 1 hour before these hypoxia tests.
(§4) In the Tables data mean the increase percent of the survival time to that of control.

[4] = Cerebral water content after cold injury (freezing lesion cerebral edema); format: in vivo; details: rats
Description: Cerebral edema was induced in rats by a freezing lesion (dry ice) made on the exposed dura of unilateral hemisphere. Edema was measured by the increase in water content of gray and white matter, the increase in phosphorylase activity and the decrease in Na^+, K^+ - ATPase activity of the injured brain. 1-(3'-Pyridyl)-3-(2'-hydroxyethyl)thiourea HCl was given 1 hour before and 24 hours after, and the animals were killed by decapitation 48 hours after the lesion treatment.

[5] = Prolonging effect on lethal time under various hypoxic conditions (mice and rats, all tests together); format: in vivo, mice (dd-strain) and rats (wister-strain); details: 100, 300 mg/kg p.o., 100 mg/kg s.c., and 30 mg/kg i.v.
[6] = test system: cardiac carbohydrate, lactate and fat; assay: Cardiac carbohydrate, lactate and fat under the influence of isoproterenol in an anoxic condition; format: in vivo, male rats of wister-strain; details: rats, 1.0 mg/kg i.v.
Description: Male rats of wister - strain served as experimental animals. Isoproterenol in a dose of 3.0 μg/kg was injected intravenously to the animals, and 5 minutes later, the rat was taken to a closed room which was filled with a mixture gas consisting of 5 % oxygen and 95 % nitrogen. After the rat was kept in the above mentioned gas chamber for 5 minutes, they were killed by cervical dislocation. The anoxic state of the heart was measured by the cardiac carbohydrate (glycogen, pyruvate), lactate and fat [non-esterifiedfatty acid (hereinafter, referred to as NEFA), triglyceride (hereinafter, referred to as TG)].

Acute toxicity = format: in vivo; details: for LD50: mouse, in vivo, dd-strain male mice
Description: Acute toxicity of 1-(3'-pyridyl)-3-(2'-hydroxyethyl)thiourea hydrochloride was determined in dd-strain male mice.

[7] = test system: cerebral carbohydrate and lactate metabolism; assay: Brain glycogen and lactate after triethyl tin sulfate cerebral edema; format: in vivo; details: rats
Description: as §1, §2

[8] = Brain water content after triethyl tin sulfate cerebral edema; format: in vivo; details: rats; for H2O, Gray: gray matter; for H2O, White: white matter
Description: as §1, §2

[9] = Hypoxia test (rat), normal pressure, survival time; format: in vivo, rats (wister-strain); details: 1.5 % O2 + 98.5 % N2
Description: as §3, §4

[10] = heart, 5 minutes before isoproterenol
[11] = heart, 10 minutes before isoproterenol
[12] = heart, 30 minutes before isoproterenol
[13] = heart, 60 minutes before isoproterenol

Structure (SMILES): OCCNC(=S)Nc1cccnc1 [1-(3'-pyridyl)-3-(2'-hydroxyethyl)thiourea hydrochloride]
- Phosphorylase A/T × 100 (Active phosphorylase/Total phosphorylase) (phosphorylase; 30 mg/kg p.o.): 73.3
- Phosphorylase, Active (phosphorylase; 30 mg/kg p.o.): 0.197 units/g
- Phosphorylase A/T × 100 (Active phosphorylase/Total phosphorylase) (phosphorylase; 100 mg/kg p.o.): 71.5
- Phosphorylase, Active (phosphorylase; 100 mg/kg p.o.): 0.192 units/g
- Phosphorylase A/T × 100 (Active phosphorylase/Total phosphorylase) (phosphorylase; 300 mg/kg p.o.): 67.8
- Phosphorylase, Active (phosphorylase; 300 mg/kg p.o.): 0.187 units/g
- haemodynamic effects in comparison with papaverine hydrochloride [1]: relatively weak
- action to the common carotid artery blood flow ([1]; 0.1 - 1.0 mg/kg intra-common carotid artery): 12 - 39%
- carotid artery blood flow increase ([1]; 3 - 30 mg/kg intravenously): 6 - 24%
- femoral artery blood flow increase ([1]; 3 - 30 mg/kg intravenously): 4 - 18%
- blood pressure decrease ([1]; 3 - 30 mg/kg intravenously, systolic, femoral artery): 8 - 14%
- increase percent of the survival time to that of control ([2]; 30 mg/kg i.v.): 185%
- increase percent of the survival time to that of control ([2]; 30 mg/kg p.o.): 42%
- increase percent of the survival time to that of control ([2]; 100 mg/kg p.o.): 189%
- increase percent of the survival time to that of control ([2]; 100 mg/kg s.c.): 254%
- increase percent of the survival time to that of control ([2]; 300 mg/kg p.o.): 287%
- increase percent of the survival time to that of control ([3]; 30 mg/kg i.v.): 141%
- increase percent of the survival time to that of control ([3]; 30 mg/kg p.o.): 35%
- increase percent of the survival time to that of control ([3]; 100 mg/kg p.o.): 64%
- increase percent of the survival time to that of control ([3]; 100 mg/kg s.c.): 128%
- increase percent of the survival time to that of control ([3]; 300 mg/kg p.o.): 132%
- H2O, Gray matter ([4]; 100 mg/kg p.o.): 81.5%
- H2O, White matter ([4]; 100 mg/kg p.o.): 80.3%
- effect on the increase in water content ([4]; 300 mg/kg p.o.): protective effect
- H2O, Gray matter ([4]; 300 mg/kg p.o.): 79.7%
- H2O, White matter ([4]; 300 mg/kg p.o.): 79.5%
- survival in comparison with the survival time of each control group [5]: survived twice or more
- effect on the increase in NEFA level ([6]; heart): antagonized
- effect on the increase in lactate level ([6]; heart): antagonized
- effect on the increase in pyruvate level ([6]; heart): antagonized
- Glycogen [6, 10]: 5.68 ± 0.45 mg/g
- Lactate [6, 10]: 123.2 ± 10.7 µg/g
- NEFA [6, 10]: 4.26 ± 0.35 µM/g
- Pyruvate [6, 10]: 38.4 ± 2.42 µg/g
- TG [6, 10]: 2.15 ± 0.21 mg/g
- Glycogen [6, 11]: 6.05 ± 0.51 mg/g
- Lactate [6, 11]: 95.1 ± 8.2 µg/g
- NEFA [6, 11]: 4.12 ± 0.29 µM/g
- Pyruvate [6, 11]: 29.5 ± 3.15 µg/g
- TG [6, 11]: 1.98 ± 0.13 mg/g
- Glycogen [6, 12]: 6.97 ± 0.41 mg/g
- Lactate [6, 12]: 92.5 ± 9.7 µg/g
- NEFA [6, 12]: 3.87 ± 0.32 µM/g
- Pyruvate [6, 12]: 25.2 ± 2.07 µg/g
- TG [6, 12]: 1.87 ± 0.19 mg/g
- Glycogen [6, 13]: 5.92 ± 0.62 mg/g
- Lactate [6, 13]: 140.6 ± 12.3 µg/g
- NEFA [6, 13]: 4.58 ± 0.36 µM/g
- Pyruvate [6, 13]: 39.3 ± 2.76 µg/g
- TG [6, 13]: 2.25 ± 0.18 mg/g
- effect on the decrease in cardiac glycogen content [6]: antagonized
- significance of the antagonizing effect ([6]; administered 10 - 30 minutes before isoproterenol): significantly
- acute lethal toxic symptoms (Acute toxicity; dose of LD50 or more): sedation and paralysis
- LD50 (Acute toxicity; iv): 640 mg/kg
- LD50 (Acute toxicity; po): > 2000 mg/kg
- LD50 (Acute toxicity; sc): 1350 mg/kg
- Glycogen ([7]; 30 mg/kg p.o.): 1.03 mg/g
- Lactate ([7]; 30 mg/kg p.o.): 72.5 µg/g
- Glycogen ([7]; 100 mg/kg p.o.): 1.17 mg/g
- Lactate ([7]; 100 mg/kg p.o.): 65.5 µg/g
- Glycogen ([7]; 300 mg/kg p.o.): 1.27 mg/g
- Lactate ([7]; 300 mg/kg p.o.): 61.0 µg/g
- effect on the decrease in glycogen level of the injured brain ([7]; 100 and 300 mg/kg orally): antagonized
- effect on the increase in lactate level of the injured brain ([7]; 100 and 300 mg/kg orally): antagonized
- H2O, Gray ([8]; 30 mg/kg p.o.): 81.6%
- H2O, White ([8]; 30 mg/kg p.o.): 79.5%
- H2O, Gray ([8]; 100 mg/kg p.o.): 80.2%
- H2O, White ([8]; 100 mg/kg p.o.): 78.3%
- H2O, Gray ([8]; 300 mg/kg p.o.): 79.4%
- H2O, White ([8]; 300 mg/kg p.o.): 77.8%
- increase percent of the survival time to that of control ([9]; 30 mg/kg i.v.): 148%
- increase percent of the survival time to that of control ([9]; 30 mg/kg p.o.): 36%
- increase percent of the survival time to that of control ([9]; 100 mg/kg p.o.): 75%
- increase percent of the survival time to that of control ([9]; 100 mg/kg s.c.): 192%
- increase percent of the survival time to that of control ([9]; 300 mg/kg p.o.): 153%

From patent publication US3992391A, “1,3-Disubstituted thiourea compounds and preparation thereof” (priority 1972, dated 1976)
